According to patent US11801238B2, “Anti-viral activity of VPS34 inhibitors” (priority 2020, dated 2023):

tested on: not listed separately; assay: in vitro; details: human

Row | Compound | CC50 [nM]
1 | CC(=O)Nc1cc(-c2cc(-c3cccnc3C(F)(F)F)[nH]c(=O)c2)ccn1 [Compound 2] | > 30000
2 | COC(=O)Nc1cc(-c2cc(N3CCOCC3C(F)(F)F)[nH]c(=O)c2)ccn1 (stereo not shown) [Compound 4] | 2400
3 | COC(=O)Nc1cc(-c2cc(-c3ccccc3C(F)(F)F)[nH]c(=O)c2)ccn1 [Compound 1] | 17000
4 | COC(=O)Nc1cc(-c2cc(-c3cccnc3C(F)(F)F)[nH]c(=O)c2)ccn1 [Compound 3] | > 30000

tested on: SARS CoV-2; assay: microbe, parasite or virus in culture; format: cell-based; details: Severe acute respiratory syndrome coronavirus 2, A549, 48 h; read-out: IC50 for inhibition of SARS CoV-2 mediated cell killing

Row | Compound | IC50 [nM]
5 | CC(=O)Nc1cc(-c2cc(-c3cccnc3C(F)(F)F)[nH]c(=O)c2)ccn1 [Compound 2] | 470
6 | COC(=O)Nc1cc(-c2cc(N3CCOCC3C(F)(F)F)[nH]c(=O)c2)ccn1 (stereo not shown) [Compound 4] | 67
7 | COC(=O)Nc1cc(-c2cc(-c3ccccc3C(F)(F)F)[nH]c(=O)c2)ccn1 [Compound 1] | 90
8 | COC(=O)Nc1cc(-c2cc(-c3cccnc3C(F)(F)F)[nH]c(=O)c2)ccn1 [Compound 3] | 190

tested on: SARS CoV-2; assay: SARS CoV-2 CPE assay for antiviral activity in Vero E6 host cells; format: cell-based; details: Vero C1008, 72 h, read-out: IC50 for inhibition of SARS CoV-2 mediated cell killing

Row | Compound | IC50 [nM]
9 | COC(=O)Nc1cc(-c2cc(N3CCOCC3C(F)(F)F)[nH]c(=O)c2)ccn1 (stereo not shown) [Compound 4] | 209

same assay, conditions: Vero C1008; CPE assay, Vero E6 cells, USA_WA1/2020 SARS CoV-2, 72 hours, 10-point dose response (high concentration 15 μM); read-out: IC50 for inhibition of SARS CoV-2 mediated cell killing

Row | Compound | IC50 [nM]
10 | CC(=O)Nc1cc(-c2cc(-c3cccnc3C(F)(F)F)[nH]c(=O)c2)ccn1 [Compound 2] | 2340
11 | COC(=O)Nc1cc(-c2cc(-c3ccccc3C(F)(F)F)[nH]c(=O)c2)ccn1 [Compound 1] | 120
12 | COC(=O)Nc1cc(-c2cc(-c3cccnc3C(F)(F)F)[nH]c(=O)c2)ccn1 [Compound 3] | 340

tested on: not listed separately; assay: Compound cytotoxicity (CC50) counter screen, Cell Titer-Glo; format: cell-based; details: African green monkey, Example 5, Vero E6 cells, read-out: CC50 (general cytotoxic effects)
Method: Compound cytotoxicity (CC50) is assessed in a BSL-2 counter screen as follows: Host cells in media are added in 25 μl aliquots (4000 cells/well) to each well of assay ready plates prepared with test compounds as above. Cells only (100% viability) and cells treated with hyamine at 100 μM final concentration (0% viability) serve as the high and low signal controls, respectively, for cytotoxic effect in the assay. DMSO is maintained at a constant concentration for all wells (0.3%) as dictated by the dilution factor of stock test compound concentrations. After incubating plates at 37° C./5% CO2 and 90% humidity for 72 hours, 30 μl Cell Titer-Glo (Promega) is added to each well. Luminescence is read using a BMG PHERAstar plate reader following incubation at room temperature for 10 minutes to measure cell viability.

Row | Compound | CC50 at 72 h [nM]
13 | CC(=O)Nc1cc(-c2cc(-c3cccnc3C(F)(F)F)[nH]c(=O)c2)ccn1 [Compound 2] | > 30000
14 | COC(=O)Nc1cc(-c2cc(N3CCOCC3C(F)(F)F)[nH]c(=O)c2)ccn1 (stereo not shown) [Compound 4] | 8260
15 | COC(=O)Nc1cc(-c2cc(-c3ccccc3C(F)(F)F)[nH]c(=O)c2)ccn1 [Compound 1] | > 30000
16 | COC(=O)Nc1cc(-c2cc(-c3cccnc3C(F)(F)F)[nH]c(=O)c2)ccn1 [Compound 3] | > 30000
